The text below walks through data of patent US7807677B2, “HIV protease inhibitors” (Medivir AB, priority 2005, dated 2010).

One data set deals with HIV-1IIIB (wild type). Put plainly: Antiviral activity in cell culture (XTT assay in MT-4 cells). The class given is cell-based. Particulars: Human immunodeficiency virus 1, MT4, read-out: ED50 (μM). Here is the method:
Compounds of the invention are assayed for HIV activity, for example using multiple determinations with XTT in MT-4 cells (Weislow et al, J Nat Cancer Inst 1989, vol 81 no 8, 577 et seq), preferably including determinations in the presence of 40-50% human serum to indicate the contribution of protein binding. In short the XTT assay uses human T cell line MT4 cells grown in RPMI 1640 medium supplemented with 10% fetal calf serum (or 40-50% human serum as appropriate), penicillin and streptomycin seeded into 96 well microplates (2·10^4 cells/well) infected with 10-20 TCID50 per well of HIV-1IIIB (wild type) or mutant virus, such as those bearing RT Ile 100, Cys 181 or Asn 103 mutations. Serially diluted test compounds are added to respective wells and the culture incubated at 37° C. in a CO2 enriched atmosphere and the viability of cells is determined at day five or six with XTT vital dye. Results are typically presented as ED50 μM.
Exp. Med. Biol., 1998, 436, 99-103. […] Agents Chemother., 1997, 41, 2383-2388.
(Tetrazolium dyes change colour on reduction, which living cells bring about.)

Data set [1] concerns the target T1, HIV-1 protease (Human immunodeficiency virus type 1 group M subtype B, UniProt P04585). Put plainly: biochemical.
For data set [2] the following is noted: cited from earlier work.
Data set [3] concerns cytochrome P450 3A enzyme. The settings on record: inhibitor of the cytochrome P450 3A enzyme; cited from earlier work.
Data set [4] has as its target T1, HIV-1 protease. The settings on record: Enzyme Inhibition.

pKi: −log10 of the molar value. Read-outs that look alike come from different tables or passages of the source.

Broadly, the pKi is the negative decadic logarithm of the Ki, by convention in mol/L. As to `COC(=O)N[C@H](C(=O)NN(Cc1ccccc1)C[C@@](O)(Cc1ccccc1)C(=O)N[C@H]1c2ccccc2C[C@H]1O)C(C)(C)C` [Compound 15, {(1S)-1-[N′-Benzyl-N′-((2S)-2-hydroxy-2-((1S,2R)-2-hydroxy-indan-1-ylcarbamoyl)-3-phenyl-propyl)-hydrazinocarbonyl]-2,2-dimethyl-propyl}-carbamic acid methyl ester], the EC50 in the data set on HIV-1IIIB (wild type) is 2 to 10 µM. The pKi at HIV-1 protease [1] was over 8.00.
For the compound `Cc1c(O)cccc1C(=O)N[C@@H](CSc1ccccc1)[C@H](O)CN1C[C@H]2CCCC[C@H]2C[C@H]1C(=O)NC(C)(C)C` [nelfinavir], the “increase the exposure of saquinavir” value in data set [2] (saquinavir dosed at 1200 mg thrice-daily (TID), at steady-state) is reported as 392%.
Take `COC(=O)N[C@H](C(=O)NN(Cc1ccccc1)C[C@@](O)(Cc1ccccc1)C(=O)N[C@H]1c2ccccc2C[C@H]1O)C(C)C` [Compound 14, {(1S)-1-[N′-Benzyl-N′-((2S)-2-hydroxy-2-((1S,2R)-2-hydroxy-indan-1-ylcarbamoyl)-3-phenyl-propyl)-hydrazinocarbonyl]-2-methyl-propyl}-carbamic acid methyl ester]: in the data set with HIV-1IIIB (wild type), the EC50 lay in the range of 2 to 10 µM. Also, on HIV-1 protease [1], the pKi was over 8.00.
Consider `COC(=O)N[C@H](C(=O)N[C@@H](Cc1ccccc1)[C@@H](O)CN(Cc1ccc(-c2ccccn2)cc1)NC(=O)[C@@H](NC(=O)OC)C(C)(C)C)C(C)(C)C` [Atazanavir, atazanavir], for which the pKi in data set [3] was 5.62. Moreover, the “increase in exposure (saquinavir)” value in data set [2] (due to combination with atazanavir, multiple-dose pharmacology study) is given as “greater than 3 fold”.
`CC(C)(C)[C@H](NC(=O)NCc1ccccc1)C(=O)NN(Cc1ccccc1)C[C@@](O)(Cc1ccccc1)C(=O)N[C@H]1c2ccccc2C[C@H]1O` [Compound 18, (2S)-2-Benzyl-3-{N-Benzyl-N′-[(2S)-2-(3-benzyl-ureido)-3,3-dimethyl-butyryl]-hydrazino}-2-hydroxy-N-((1S,2R)-2-hydroxy-indan-1-yl)-propionamide] showed a pKi at HIV-1 protease [1] of 7.30 to 7.96.
Compound “{(1S)-1-[N′-(4-Bromo-benzyl)-N′-((2S)-2-hydroxy-2-((1S,2R)-2-hydroxy-indan-1-ylcarbamoyl)-3-phenyl-propyl)-hydrazinocarbonyl]-2-methyl-propyl}-carbamic acid benzyl ester [Compound 20]” had a pKi at HIV-1 protease [4] of 7.30 to 7.96.
In turn, `CC(C)[C@H](NC(=O)OCc1ccccc1)C(=O)NN(Cc1ccccc1)C[C@@](O)(Cc1ccccc1)C(=O)N[C@H]1c2ccccc2C[C@H]1O` [Compound 11, {(1S)-1-[N′-Benzyl-N′-((2S)-2-hydroxy-2-((1S,2R)-2-hydroxy-indan-1-ylcarbamoyl)-3-phenyl-propyl)-hydrazinocarbonyl]-2-methyl-propyl}-carbamic acid benzyl ester] had a pKi on HIV-1 protease [1] of 7.30 to 7.96.
Consider `COC(=O)N[C@H](C(=O)NN(Cc1ccc(Br)cc1)C[C@@](O)(Cc1ccccc1)C(=O)N[C@H]1c2ccccc2C[C@H]1O)C(C)(C)C` [Compound 19, {(1S)-1-[N′-(4-Bromo-benzyl)-N′-((2S)-2-hydroxy-2-((1S,2R)-2-hydroxy-indan-1-ylcarbamoyl)-3-phenyl-propyl)-hydrazinocarbonyl]-2,2-dimethyl-propyl}-carbamic acid methyl ester], for which, in the data set with HIV-1IIIB (wild type), the EC50 was under 2 µM.
At HIV-1 protease [1], `CC(C)(C)[C@H](NS(C)(=O)=O)C(=O)NN(Cc1ccccc1)C[C@@](O)(Cc1ccccc1)C(=O)N[C@H]1c2ccccc2C[C@H]1O` [Compound 17, (2S)-2-Benzyl-3-[N-benzyl-N′-((2S)-2-methanesulfonylamino-3,3-dimethyl-butyryl)-hydrazino]-2-hydroxy-N-((1S,2R)-2-hydroxy-indan-1-yl)-propionamide] had a pKi of 7.00 to 7.30.
On HIV-1 protease [1], `CC(C)(C)[C@H](NC(=O)OCc1ccccc1)C(=O)NN(Cc1ccccc1)C[C@@](O)(Cc1ccccc1)C(=O)N[C@H]1c2ccccc2C[C@H]1O` [Compound 13, {(1S)-1-[N′-Benzyl-N′-((2S)-2-hydroxy-2-((1S,2R)-2-hydroxy-indan-1-ylcarbamoyl)-3-phenyl-propyl)-hydrazinocarbonyl]-2,2-dimethyl-propyl}-carbamic acid benzyl ester] showed a pKi of 7.30 to 7.96.
